Six molecules from patent US10828288B2, “Hydrazone derivatives for the treatment of cancer” (RUTGERS, THE STATE UNIVERSITY OF NEW JERSEY, priority 2015, dated 2020) can be followed below.

The subject of one data set is H460 (p53-WT). The data set is described as follows: Cell growth inhibition assay, H460. It is filed as cell-based, human. To be noted: three day assay, H460, FIG. 1.
The next data set deals with H1299 (p53-null). Put plainly: Cell growth inhibition assay, H1299. It is filed as cell-based, human. To be noted: three day assay, H1299, FIG. 1.
Data set [1] deals with HEK293 (non-cancer, p53-WT) cells. Put plainly: Intracellular [Zn2+]free imaging with FluoZin-3-AM, HEK293. It is filed as cell-based. To be noted: for increase of intracellular [Zn2+]free (FZ3-AM fluorescence): HEK293, complete media, confocal microscopy. Here is the method:
To minimize the potential for Zn^2+ contamination and contributions from poorly defined elements in complete media (e.g. FBS), cells were treated and imaged in Ca^2+ and Mg^2+-free Earle's Balanced Salt Solution supplemented with 10 mM HEPES pH 7.4 (EBSS/H (−)Ca/Mg). Excess ZnCl2 with the Zn^2+ ionophore pyrithione (PYR) was used as a positive control. Excess membrane-permeable Zn^2+ chelator N,N,N′,N′-tetrakis(2-pyridylmethyl)ethane-1,2-diamine (TPEN) was used as a negative control.
To normalize for differential dye loading, cells were then sequentially treated with excess PYR/ZnCl2, imaged, treated with TPEN, and imaged again. PYR/ZnCl2 and TPEN served to saturate and apoize the intracellular FZ3, respectively.
(§1) [formula] where Ji is the initial flux, ΔF/Δt is the slope of the fit line, Fmax is RZ-3 fluorescence in the presence of saturating Zn^2+ and 1% TritonX-100, Fmin is RZ-3 fluorescence in the presence of excess EDTA and 1% TritonX-100, [RZ3] is the concentration of encapsulated RZ-3, and SA/Vol is the surface area to volume ratio calculated assuming hollow spheres of the mean diameter determined by DLS. Intracellular [Zn^2+]free Imaging TOV112D or HEK293 cells (40,000 cells/well) were plated on either 8-well BD Falcon chambered culture slides (Corning Life Sciences) or 8-chambered #1.5 Nunc Lab-Tek II chambered coverglasses (Thermo Scientific) treated with poly-L-lysine. After 48 h, cells were washed 2×5 m in serum-free media and incubated with 1 μM FZ3-AM for 40 m at 37° C. Cells were then washed 2×5 m in either EBSS/H (−)Ca/Mg or phenol-red free DMEM+10% FBS containing the indicated treatments for 20 m before imaging. For nuclear colocalization, 1 μg/mL Hoechst 33342 was also included. Cells were imaged using a Zeiss LSM510 META NLO confocal microscope equipped with 37° C. environmental control chamber. FZ3 and Hoechst 33342 were excited at 488 nm (argon laser) and 790 nm (Chameleon Ti:sapphire laser), respectively. To determine the kinetics of fluorescence change, each background-subtracted image in the time-lapse series was integrated in ImageJ and normalized to the integrated fluorescence of the first frame after treatment. For quantification of intracellular [Zn^2+]free, each cell was analyzed in the treated, 50 μM PYR/ZnCl2 (1:1), and 100 μM TPEN images by taking the mean fluorescence of an ROI inside the cell subtracted by an ROI immediately outside the cell measured in ImageJ. The [Zn^2+]free for each cell was then calculated by Eqn 2:
[formula] […] To minimize the effects of outliers the lowest and highest 5% of cells in each series were rejected, and the remaining values averaged to give the value from that experiment. The number of cells analyzed in each trial ranged from 54-163. For nuclear colocalization, treated, PYR/ZnCl2, and TPEN treated images costained with Hoechst 33342 were aligned and each pixel subjected to Eqn. 2 in MATLAB (MathWorks).

A short description of data set [2]: Liposome import assay (RZ-3 fluorescence). It is filed as physicochemical. The settings on record: for shuttling of Zn2+ into liposomes: external [Zn2+]free 10 μM; for change of RZ-3 fluorescence with reversed [Zn2+]free gradient: large excess of EDTA outside the liposomes, ZMC1 added subsequently. As for the experimental part: DOPC-liposomes were prepared by film rehydration and extrusion followed by gel filtration and diluted to an OD600=0.06 in buffer. The size distribution of the liposomes was determined by dynamic light scattering (DLS) using a Malvern Zetasizer Nano ZS. Fluorescence measurements were taken on a Horiba Fluoromax-4 spectrofluorimeter in a 5×5 mm quartz cuvette with λex/λcm=550/572 nm for RZ-3 and 490/515 nm for calcein. Initial Zn^2+ import/export was quantified by fitting the first 10-30 s of data after each treatment to a line and converted to units of flux using the following Eqn 1:
as §1, with “2: […]” for “2:”

With `C/C(=N\Nc1nc2ccccc2o1)c1ccccn1` [Example 2, (E)-2-(2-(1-(pyridin-2-yl)ethylidene)hydrazinyl)benzo[d]oxazole], in the data set on H460 (p53-WT), the “cell growth inhibition of p53 wildtype cell line” value is reported as “undisturbed”. Besides, the “cell growth inhibition of p53 null cell line” value with H1299 (p53-null) was “undisturbed”.

Turning to `C/C(=N\NC(=O)N1CCC1)c1ccccn1` [Example A6], the “increase of intracellular [Zn2+]free (FZ3-AM fluorescence)” value in data set [1] is listed as “did not”. Moreover, the “shuttling of Zn2+ into liposomes” value in data set [2] is listed as “shuttled Zn^2+ into the liposomes”.

Consider `O=C(O)CN(CC(=O)O)CC(=O)O` [NTA], for which, in data set [1], the “increase of intracellular [Zn2+]free (FZ3-AM fluorescence)” value is recorded as “did not”. In data set [2], the “ability to cross liposomal (or cellular) membranes” value (“ability to cross liposomal” for short) was “cannot cross” and the “shuttling of Zn2+ into liposomes” value is “did not”.

In the case of `C/C(=N\Nc1nc2ccccc2s1)c1ccccn1` [Example 1, (E)-2-(2-(1-(pyridin-2-yl)ethylidene)hydrazinyl)benzo[d]thiazole], the “cell growth inhibition of p53 wildtype cell line” value with H460 (p53-WT) is “undisturbed”. Also, the “cell growth inhibition of p53 null cell line” value with H1299 (p53-null) is reported as “undisturbed”.

For the molecule `C/C(=N\NC(=S)N1CCC1)c1ccccn1` [ZMC1], the “steady-state intracellular [Zn2+]free” value in data set [1] (HEK293, 1 μM ZMC1 and 0.5 μM ZnCl2 in EBSS/H (−)Ca/Mg) was 18.1 ± 4.7 nM. In addition, in data set [1] (HEK293, EBSS/H (−)Ca/Mg, ZMC1 alone without ZnCl2), the “increase of intracellular [Zn2+]free, compound alone” value was “neither cell type showed an increase”. The “increase of intracellular [Zn2+]free, with ZnCl2” value in data set [1] (HEK293, EBSS/H (−)Ca/Mg, ZMC1 and ZnCl2, two ZnCl2 concentrations) is “time dependent increase”. Moreover, the “increase of intracellular [Zn2+]free (FZ3-AM fluorescence)” value in data set [1] is given as “increased”. In data set [2], the “ability to cross liposomal” value was “crossed the liposomal membranes” and the “change of RZ-3 fluorescence with reversed [Zn2+]free gradient” value was “time dependent decrease”.

For the molecule `O=C(O)CN(CCN(CC(=O)O)CC(=O)O)CC(=O)O` [EDTA], in data set [2], the “ability to cross liposomal” value is reported as “impermeable” and the “change of RZ-3 fluorescence with reversed [Zn2+]free gradient” value is “did not cause a significant decrease”.
